Some test systems named below: SN12C renal; NCI/ADR-RES ovarian; MALME-3M melanoma; SR leukemia; SK-MEL-28 melanoma; LOX IMVI melanoma; A549 NSCLC; NCI-H522 lung; SK-MEL-5 melanoma; HS 578T breast.
What all share (experiment): inhibition of tumour cell growth, NCI panel, 48 h

Where “and” joins values, the source holds several entries; their conditions need not be identical. Equal values may be shown once.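 These data come from cells grown in 96-well plates and exposed to compound for 48 hours at five concentrations. The concentration for 50% growth inhibition is given as GI50. TGI: concentration producing complete growth inhibition.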

`O=C(O[C@H]1CN[C@H](C#Cc2cc3ncnc(Nc4ccc(OCc5cccc(F)c5)c(Cl)c4)c3s2)C1)N1CCOCC1`: the GI50 is 5.66 µM in the assay on SN12C renal; 6.3 µM with NCI/ADR-RES ovarian; 4.95 µM with MALME-3M melanoma; 8.01 µM in the assay with SR leukemia; 12.4 µM in the assay with SK-MEL-28 melanoma; 7.72 µM in the assay with LOX IMVI melanoma. The GI50 was 6 µM in the assay on A549 NSCLC, 1.41 µM in the assay on NCI-H522 lung, 8.55 µM with SK-MEL-5 melanoma and 7.23 µM in the assay with HS 578T breast. For the same compound, the TGI was > 25 µM in the assay on SN12C renal; > 25 µM with NCI/ADR-RES ovarian; 10.2 µM in the assay on MALME-3M melanoma; > 23.7 µM with SR leukemia; > 25 µM in the assay on SK-MEL-28 melanoma; > 25 µM in the assay on LOX IMVI melanoma. The TGI with A549 NSCLC is > 25 µM; with NCI-H522 lung it was 8.12 µM; in the assay on SK-MEL-5 melanoma, > 25 µM; in the assay on HS 578T breast, > 25 µM.

On to `O=C1CC2C(=O)C1C(C(=O)O)C2C(=O)O` (configuration not stated), for which the TGI in the assay with SN12C renal, in the assay on NCI/ADR-RES ovarian, with MALME-3M melanoma, in the assay on SR leukemia, in the assay on SK-MEL-28 melanoma and with LOX IMVI melanoma was > 100 µM each time. In addition, the TGI in the assay with A549 NSCLC, with NCI-H522 lung, in the assay on SK-MEL-5 melanoma and with HS 578T breast was > 100 µM in each case.

`CC1OC(O[C@H]2/C=C/C=C/C=C/C=C/C=C/C=C/C=C/[C@H](C)[C@@H](O)[C@@H](C)[C@H](C)OC(=O)C[C@H](O)C[C@H](O)CC[C@@H](O)[C@H](O)C[C@H](O)C[C@]3(O)C[C@H](O)[C@@H](C(=O)O)[C@H](C2)O3)C(O)C(N)C1O` (some centres not stated): the GI50 in the assay on SN12C renal was 2.01 µM; with NCI/ADR-RES ovarian, 24.9 µM; with MALME-3M melanoma, 5.47 µM; in the assay on SK-MEL-28 melanoma it was 12 µM; in the assay on LOX IMVI melanoma, 15.2 µM; with A549 NSCLC, 9.72 µM. Also, the GI50 with SK-MEL-5 melanoma was 25.8 µM. Moreover, the TGI in the assay on SN12C renal is 9.15 µM; in the assay with NCI/ADR-RES ovarian, 56.5 µM; with MALME-3M melanoma, 15.3 µM; with SR leukemia it was 44.8 µM; in the assay with SK-MEL-28 melanoma, 35.2 µM; in the assay on LOX IMVI melanoma, > 50.7 µM. The TGI in the assay with A549 NSCLC is 34.9 µM; with NCI-H522 lung it was 20.9 µM; with SK-MEL-5 melanoma, 59 µM; in the assay with HS 578T breast it was 27.7 µM.

Turning to `CN(C)c1ccc2cc(-c3cc4c(oc3=O)-c3ccccc3OC4O)c(=O)oc2c1` (configuration not stated), the GI50 was 6.2 µM in the assay on SN12C renal; 3.6 µM in the assay on NCI/ADR-RES ovarian; 5.98 µM in the assay with MALME-3M melanoma; 3.19 µM in the assay on SR leukemia; 8.24 µM in the assay on SK-MEL-28 melanoma; 3.52 µM with LOX IMVI melanoma. In addition, the GI50 in the assay on A549 NSCLC is 3.22 µM; in the assay on NCI-H522 lung, 3.6 µM; in the assay on SK-MEL-5 melanoma, 0.752 µM; in the assay with HS 578T breast, 7.14 µM. Besides, the TGI in the assay with SN12C renal was 19.9 µM; in the assay on NCI/ADR-RES ovarian, 17.1 µM; in the assay on MALME-3M melanoma, 14.6 µM; in the assay with SR leukemia, 9.96 µM; with SK-MEL-28 melanoma it was > 25 µM; with LOX IMVI melanoma, 7.3 µM. The TGI in the assay with A549 NSCLC worked out at 7.15 µM; in the assay with NCI-H522 lung, 10.2 µM; in the assay with SK-MEL-5 melanoma, 4.67 µM; in the assay on HS 578T breast, 19.6 µM.

As to `COc1ccc(-c2nc(N)c3ncn(C4OC(CO)C(O)C4O)c3n2)cc1` (configuration not stated), the TGI in the assay on SN12C renal, in the assay on NCI/ADR-RES ovarian, in the assay with MALME-3M melanoma, in the assay with SR leukemia, in the assay on SK-MEL-28 melanoma and in the assay on LOX IMVI melanoma was > 100 µM each time. The TGI in the assay on A549 NSCLC, with NCI-H522 lung, with SK-MEL-5 melanoma and in the assay on HS 578T breast was > 100 µM each time.

On to `O=C1/C=C/[C@@H](O)[C@@H]2C[C@@H](O)C[C@H]2/C=C/CCC[C@H](CO)O1`, for which the GI50 with SN12C renal is 4.24 µM; in the assay on NCI/ADR-RES ovarian, 3.17 µM; with MALME-3M melanoma, 1.93 µM; in the assay on SR leukemia it was 2.5 µM; with SK-MEL-28 melanoma, 0.626 µM; in the assay with LOX IMVI melanoma, 0.832 µM. For the same compound, the GI50 in the assay with A549 NSCLC is 3.65 µM; with NCI-H522 lung, 2.67 µM; in the assay on SK-MEL-5 melanoma it was 0.705 µM; with HS 578T breast, > 100 µM. Further, the TGI with SN12C renal was > 100 µM; in the assay with NCI/ADR-RES ovarian it was > 100 µM; in the assay with MALME-3M melanoma, 7.19 µM; with SR leukemia it was > 100 µM; with SK-MEL-28 melanoma, 3.65 µM; in the assay on LOX IMVI melanoma it was 3.81 µM. For the same compound, the TGI in the assay with A549 NSCLC was > 100 µM; in the assay with NCI-H522 lung, 7.74 µM; in the assay on SK-MEL-5 melanoma it was 2.08 µM; in the assay with HS 578T breast it was > 100 µM.

Regarding `N/C(=N\c1nc2ccccc2s1)NC(=O)Nc1ccccc1Cl`, the GI50 with SN12C renal was 0.916 µM; in the assay on NCI/ADR-RES ovarian, 0.0643 µM; in the assay on MALME-3M melanoma it was 0.667 µM; with SR leukemia, 0.0411 µM; with SK-MEL-28 melanoma it was 3.59 µM; in the assay on LOX IMVI melanoma, 0.144 µM. Further, the GI50 is 0.19 µM with A549 NSCLC, 0.0439 µM in the assay with NCI-H522 lung, 0.318 µM with SK-MEL-5 melanoma and 0.113 µM in the assay with HS 578T breast. In addition, the TGI was > 50.1 µM in the assay on SN12C renal; 8.83 µM in the assay with NCI/ADR-RES ovarian; 13.2 µM in the assay with MALME-3M melanoma; > 32.7 µM in the assay on SR leukemia; > 100 µM with SK-MEL-28 melanoma; 5.92 µM in the assay with LOX IMVI melanoma. In addition, the TGI with A549 NSCLC turned out to be 18.1 µM; with NCI-H522 lung, 11.9 µM; with SK-MEL-5 melanoma, 13.5 µM; in the assay on HS 578T breast it was 10.7 µM.

As to `COc1cc2c(Nc3ccc(Br)cc3F)ncnc2cc1OCC1CCN(C)CC1`, the GI50 with SN12C renal is 1.58 µM and 3.04 µM; in the assay with NCI/ADR-RES ovarian it was 5.58 µM and > 10 µM; in the assay with MALME-3M melanoma it was 1.83 µM and 4.47 µM; in the assay on SR leukemia, 2.55 µM and 2.89 µM; in the assay with SK-MEL-28 melanoma, 1.68 µM and 1.78 µM; with LOX IMVI melanoma, 2.37 µM and 3.39 µM. Further, the GI50 in the assay on A549 NSCLC is 3.32 µM and 4.63 µM; with NCI-H522 lung, 2 µM and 1.28 µM; in the assay with SK-MEL-5 melanoma it was 4.38 µM and 5.5 µM; in the assay on HS 578T breast, 2.26 µM and 2.48 µM. For the same compound, the TGI with SN12C renal was 12.1 µM and > 10 µM; in the assay on NCI/ADR-RES ovarian, 19.1 µM and > 10 µM; in the assay on MALME-3M melanoma, 3.85 µM and > 10 µM; in the assay on SR leukemia, 8.29 µM and > 10 µM; with SK-MEL-28 melanoma it was 3.27 µM and 4.2 µM; with LOX IMVI melanoma, 8.83 µM and > 10 µM. The TGI in the assay with A549 NSCLC was 15.9 µM and > 10 µM; in the assay on NCI-H522 lung, 7.31 µM and > 10 µM; in the assay with SK-MEL-5 melanoma, 8.94 µM and > 10 µM; in the assay on HS 578T breast, 8.6 µM and > 10 µM.

For the origin of these results see PubChem BioAssay (NCI).
